The test system of data set [1] is sperms of male C57/B6 mice (fertilization function of a mammal sperm). The data set can be described thus: Semination by in vitro fertilization with sperms precultured in test culture medium; two-cell egg formation. It is filed as cell-based.

One may read the melting point as the temperature of the solid-liquid transition. In turn, `O=C(CC(C(=O)O)c1c[nH]c2c(Cl)cccc12)c1ccc(F)cc1F` (centres unmarked) [(5-1), 2-(7-chloro-1H-indol-3-yl)-4-(2,4-difluorophenyl)-4-oxo-butanoic Acid] yielded a melting point of 225 to 227 °C.

`O=C(CC(C(=O)O)c1c[nH]c2cc(OCc3ccccc3)ccc12)c1ccc(F)cc1F` (centres unmarked) [(4-2), 2-(6-benzyloxy-1H-indol-3-yl)-4-(2,4-difluorophenyl)-4-oxo-butanoic Acid] had a melting point of 177 to 178 °C.

`CCCCCOc1ccc2cccc(CC(=O)O)c2c1` [Compound #34, α-(7-Pentoxy-1-naphthalenyl)-acetic Acid] came in with a melting point of 104 to 106 °C.

As to `COc1ccc2[nH]cc(C(CC(=O)c3ccc(F)cc3F)C(=O)O)c2c1` (centres unmarked) [(3-4), 4-(2,4-difluorophenyl)-2-(5-methoxy-1H-indol-3-yl)-4-oxo-butanoic Acid], the melting point fell in the range of 205 to 206 °C.

`CCCOc1ccc2[nH]cc(CC(=O)O)c2c1` [Compound #38, 5-(1-Propoxy)-3-indoleacetic Acid] came in with a melting point of 133.6 to 136.8 °C.

`O=C(CC(C(=O)O)c1c[nH]c2ccc(Cl)cc12)c1ccc(F)cc1F` (centres unmarked) [(3-2), 2-(5-chloro-1H-indol-3-yl)-4-(2,4-difluorophenyl)-4-oxo-butanoic Acid] had a melting point of 236 to 239 °C.

Take `O=C(CC(C(=O)O)c1c[nH]c2cc(F)ccc12)c1ccc(F)cc1F` (centres unmarked) [Compound (4-1), 4-(2,4-difluorophenyl)-2-(6-fluoro-1H-indol-3-yl)-4-oxo-butanoic Acid]: the melting point lay within 210 to 214 °C.

In the case of `CCCCOc1ccc2[nH]cc(CC(=O)O)c2c1` [Compound #39, 5-(1-Butoxy)-3-indoleacetic Acid], the melting point lay in the range of 137.8 to 141.1 °C.

For `CCCn1cc(C(CC(=O)c2ccc(C)cc2C)C(=O)O)c2ccccc21` (centres unmarked) [Compound #6, 4-(2,4-Dimethylphenyl)-2-(1-propyl-1H-indol-3-yl)-4-oxo-butanoic Acid], the melting point lay in the range of 139 to 141 °C.

In the case of `CCCCOc1ccc2cccc(CC(=O)O)c2c1` [Compound #33, α-(7-Butoxy-1-naphthalenyl)-acetic Acid], the melting point is 102 to 104 °C.

In the case of `CCOc1ccc2[nH]cc(CC(=O)O)c2c1` [Compound #37, 5-Ethoxy-3-indoleacetic Acid], the melting point lay within 86 to 92.7 °C.

As to `O=C(CC(C(=O)O)c1c[nH]c2ccccc12)c1ccc(F)cc1F` (centres unmarked) [Compound #5, 4-(2,4-Difluorophenyl)-2-(1H-indol-3-yl)-4-oxo-butanoic Acid], the “The number of two-cell eggs” value in data set [1] (sperms precultured 1 hour in TYH culture medium containing 1 μM compound #5, 11 ova) is 11; in data set [1] (sperms precultured 1 hour in TYH culture medium containing 10 μM FCCP and 1 μM compound #5, 10 ova), 5. Besides, the “Fertilization rate (%)” value in data set [1] (sperms precultured 1 hour in TYH culture medium containing 1 μM compound #5, two-cell eggs observed 24 to 28 hours after semination, control without compound 40%) is 100%; in data set [1] (sperms precultured 1 hour in TYH culture medium containing 10 μM FCCP and 1 μM compound #5, FCCP alone 30%) it was 50%.

For the compound `N#CC(C#N)=NNc1ccc(OC(F)(F)F)cc1` [FCCP, carbonyl cyanide-p-trifluoromethoxyphenylhydrazone, reference compound], the “Fertilization rate (%)” value in data set [1] (sperms precultured 1 hour in TYH culture medium containing 10 μM FCCP (uncoupler), control without FCCP 47.4%) is listed as 30%. In addition, the “The number of two-cell eggs” value in data set [1] (sperms precultured 1 hour in TYH culture medium containing 10 μM FCCP, 10 ova) is 3.

In turn, `O=C(CC(C(=O)O)c1c[nH]c2ccccc12)c1ccccc1` (centres unmarked) [Compound #20, 4-Phenyl-2-(1H-indol-3-yl)-4-oxo-butanoic Acid] registered a melting point of 149 to 150 °C.

Take `COc1cccc2c(C(CC(=O)c3ccc(F)cc3F)C(=O)O)c[nH]c12` (centres unmarked) [(5-2), 4-(2,4-difluorophenyl)-2-(7-methoxy-1H-indol-3-yl)-4-oxo-butanoic Acid]: the melting point was 181 to 183 °C.

In turn, `O=C(CC(C(=O)O)c1c[nH]c2cccc(Cl)c12)c1ccc(F)cc1F` (centres unmarked) [(2-1), 2-(4-chloro-1H-indol-3-yl)-4-(2,4-difluorophenyl)-4-oxo-butanoic Acid] had a melting point of 203 to 204 °C.

Compound `O=C(CC(C(=O)O)c1c[nH]c2ccc(F)cc12)c1ccc(F)cc1F` (centres unmarked) yielded a melting point of 207 to 208 °C.

As to `Cc1ccc2[nH]cc(C(CC(=O)c3ccc(F)cc3F)C(=O)O)c2c1` (centres unmarked) [(3-3), 4-(2,4-difluorophenyl)-2-(5-methyl-1H-indol-3-yl)-4-oxo-butanoic Acid], the melting point lay in the range of 200 to 202 °C.

`Cn1cc(C(CC(=O)c2ccc(F)cc2F)C(=O)O)c2ccccc21` (centres unmarked) [(6-1), 4-(2,4-difluorophenyl)-2-(1-methyl-1H-indol-3-yl)-4-oxo-butanoic Acid] displayed a melting point of 192 to 193 °C.

The values above are taken from patent publication US12139459B2, “Enhancer of fertilization function of sperm” (TOHOKU UNIVERSITY, priority 2018, dated 2024).
